The text below walks through data of patent publication US11339124B2, “3-(benzylamino)-4-(cyclohexylamino)-n-(2-(piperazin-1-yl)ethyl)benzenesulfonamide derivatives and related ferrostatin-1 analogues as cell death inhibitors for treating e.g. stroke” (VIB VZW, priority 2018, dated 2022).

By CLint scaled is commonly meant the rate of metabolic loss divided by the concentration. Read a low CLint scaled as slow turnover. As a reminder, the half-life is the time in which the quantity being followed falls by half. A high value points to slow decline.

Several values for one entry are separate records, joined by “and”; a condition that tells them apart may be missing. Equal entries are not always repeated. Entries after “also recorded” stand apart in the source; their conditions may differ. Where two headings read alike, the source gives them in different places. Marks after values point to notes of the source that are not given here.

The nature of data set [1]: Microsomal (metabolic) stability, human liver microsomes. To be noted: for Microsomal stability (t1/2), Human / half-life at 10 µM: human liver microsomes, 0.5 mg protein/ml, 10 μM compound, 37° C.; for Microsomal stability (t1/2), Human: Hydrochloride; for CLint scaled at 10 µM / half-life at 10 µM: human, liver microsomes; for CLint scaled at 10 µM: pH 7.4; for half-life at 10 µM: pH 7.4, Microsomal stability (t1/2). From the text: (§1) By using the measured microsomal in vitro t1/2, a calculated value for the intrinsic clearance Clint can be determined. This value states the measure in which a drug that is not bound to plasma proteins is irreversibly removed from the body by the liver. This value is expressed in mL/min/kg which can be interpreted as the volume of blood in mL that is cleared of a drug per minute per kilogram of body weight. The CLint is less sensitive to used variables in ADME assays since the amount of microsomal protein and the volume of the incubation are all taken into account. (Sohlenius-Sternbeck et al., Xenobiotica, 2012, 42, 841-853)
(§2) Liver microsomes (20 mg protein/ml), NADPH regenerating system solutions A & B and 5 mM stock compound solution (100% DMSO) are prepared. The reaction mixture finally contains 713 μL purified water, 200 μL 0.5 M potassium phosphate pH 7.4, 50 μL NADPH regenerating system solution A (BD Biosciences Cat. No. 451220), 10 μL NADPH regenerating system solution B (BD Biosciences Cat. No. 451200) and 2 μL of the compound stock solution (10 μM final concentration). The reaction mixture is warmed to 37° C. for 5 minutes in a water bath and the reaction is initiated by addition of 25 μL of liver microsomes (0.5 mg protein/ml final concentration). At different time points (0 min-15 min-30 min-60 min-120 min-240 min-360 min-24 h), 20 μL is withdrawn and 80 μL cold acetonitrile is added on ice for 10 minutes. Then the mixtures are centrifuged at 13 000 rpm for 5 min at 4° C. The supernatant is further diluted in 90% water/MeCN (1/25) to fall within the range of the LC/MS/MS analysis. At each time point, the compound is analysed using LC/MS/MS with the same UPLC system as described above. A standard curve of six points was made to fit the measured concentrations. Verapamil was used as a positive control.
(§3) All obtained readouts were processed using Microsoft Excel. In order to determine the microsomal half-life t1/2 of the compounds, the rate constant k was determined by plotting the exponential decay graphs using GraFit. Microsomal t1/2 was determined using the following formula: […]
(Liver microsomes are a subcellular fraction often used to study metabolism.)

Data set [2] in a line: Microsomal (metabolic) stability, rat liver microsomes. To be noted: for CLint scaled at 10 µM / half-life at 10 µM: rat.
Text: as §1, §2, §3

The nature of data set [3]: Microsomal (metabolic) stability, mouse liver microsomes. As to conditions: pH 7.4.
Text: as §1, §2, §3

Data set [4] is described as follows: Plasma stability, rat plasma. The format is in vitro ADME. As to conditions: 37° C., remaining parent compound, read-out: Plasma stability (% recovery after 6 h), Rat. As to the method: 5 μl of a 10 mM stock solution of the compound in DMSO was added to 995 μl of plasma to obtain a 50 μM final solution. The mixture was gently shaken for 6 h at 37° C. Aliquots of 100 μl were taken at various time points (0, 0.5 h, 1 h, 2 h, 3 h and 6 h) and diluted with 400 μl of cold methanol (stored at 4° C.). The suspension was centrifuged at 14000 rpm for 5 min. 50 μl of the supernatant was diluted with 950 μl of methanol and analysed with LC/MS/MS. The samples were analysed in triplicate. The experiment was done in duplicate. […] Enalapril maleate was used as a control in mice, rats, and in human.

Data set [5] is described as follows: Pharmacokinetics and tissue distribution after single-dose iv injection in mice. The format is in vivo. As to conditions: single-dose iv injection (~10 mg/kg).
Data set [6] is described as follows: Tissue distribution in rats 24 h after iv dose. The format is in vivo. To be noted: rat, 5 mg/kg iv; for concentration at 24 h: male, Wistar, iv. As to the method:
To assess the extent of tissue distribution of compound 39, various organs (liver, kidney and lungs) of all three rats were collected on ice at necropsy 24 hours after administration before being homogenized and analyzed.
Each rat received an iv dose at 5 mg/kg and the internal organs were collected at narcopsy at 24 h. The organs were homogenized and further processed by protein precipitation (n=3) and centrifugation. Analysis of the samples was conducted by LC-MS.
Tissues (liver, kidneys and lungs) were collected on ice at necropsy at 24 h (after prior exsanguination), homogenized using a gentle MACS™ Dissociator and stored at −80° C. until analysis. The tissue samples for LC-MS were further processed by protein precipitation (n=3) by diluting 20 μL of the homogenate with 80 μL ACN containing IS (tolbutamide). After centrifugation, the supernatant was further diluted in the appropriate solvent.

In data set [7] the test system is experimental autoimmune encephalomyelitis model. Put plainly: Experimental autoimmune encephalomyelitis (EAE) model, therapeutic intervention. As to conditions: C57BL/6N male mice, daily ip from clinical score 2, scale 0 to 6 (FIG. 6); Hydrochloride. The data set is classed as in vivo. As for the experimental part: 9-10-week-old C57BL/6N male mice were immunized subcutaneously with an emulsion of (MOG) 35-55 peptide (10 mg/kg) and CFA supplemented with Mycobacterium tuberculosis H37RA (50 mg/kg). The mice received an intraperitoneal injection of pertussis toxin (5 ug/kg) at the time of immunization and 48 h later. In a therapeutic procedure, mice that reached the clinical sore of 2 were injected intraperitoneally every day with equimolar amounts of Fer-1, compound 39, Liproxtatin-1 or vehicle (˜1-mg/kg) and were scored daily. Clinical signs of disease were scored on a scale of 0 to 6, as follows: 0, normal; 1, weakness of tail; 2, complete loss of tail tonicity; 3, partial hind limb paralysis; 4, complete hind limb paralysis; 5, forelimb paralysis or moribund; and 6, death (McGuire C et al (2013) J. Immunol. 190(6): 2896).
Experimental autoimmune encephalomyelitis (EAE) is an experimental mouse for multiple sclerosis.

Where [8] appears, read: liver microsomes, pH 7.4, Microsomal stability (t1/2), rat liver microsomes, 0.5 mg protein/ml, 10 μM compound, 37° C.
[9] abbreviates: after 24 h, one value per rat, Hydrochloride, 5 mg/kg.

As to `Cl.NCCNS(=O)(=O)c1ccc(NC2CCCCC2)c(NCc2ccccc2)c1` [Compound 38, N-(2-aminoethyl)-3-(benzylamino)-4-(cyclohexylamino)benzenesulfonamide Hydrochloride], in data set [1], the “Microsomal stability (t1/2), Human” value came out at 17.71 ± 2.04 h. The CLint scaled at 10 µM in data set [1] was 1.3 ± 0.1 mL/min/kg; in data set [2] (liver microsomes, pH 7.4), 27.4 ± 2.7 mL/min/kg; in data set [3] (liver microsomes), 4.8 ± 1.5 mL/min/kg. For the same molecule, the half-life at 10 µM in data set [1] was 17.7 h; in data set [2] (microsomes, pH 7.4), 2.05 h; in data set [3] (microsomes), 13 h. In data set [4], the recovery at 6 h, 50 μM worked out at 100%. For the same molecule, the Levels in blood result in data set [5] is recorded as “almost undetectable levels in blood”.
For `CNCCNS(=O)(=O)c1ccc(NC2CCCCC2)c(NCc2ccccc2)c1.Cl` [Compound 37, 3-(benzylamino)-4-(cyclohexylamino)-N-(2-(methylamino)ethyl)benzenesulfonamide Hydrochloride], the CLint scaled at 10 µM in data set [1] stood at 1.7 ± 0.5 mL/min/kg; in data set [2] (liver microsomes, pH 7.4) it was 161 ± 4.6 mL/min/kg; in data set [3] (liver microsomes) it was 139 ± 6.2 mL/min/kg. For the same molecule, the values for the half-life at 10 µM in data set [1], in data set [2] (setting [8]) and in data set [3] (liver microsomes) were 13.2 ± 4.1 h, 0.35 ± 0.01 h and 0.45 ± 0.02 h, respectively. Moreover, the recovery at 6 h, 50 μM in data set [4] came to 65.8%. Moreover, the Levels in blood result in data set [5] was “almost undetectable levels in blood”.
As for `Cl.O=S(=O)(NCCN1CCNCC1)c1ccc(NC2CCCCC2)c(NCc2ccccc2)c1` [Compound 39, 3-(benzylamino)-4-(cyclohexylamino)-N-(2-(piperazin-1-yl)ethyl)benzenesulfonamide Hydrochloride], the “Microsomal stability (t1/2), Human” value in data set [1] stood at 20.53 ± 5.49 h. The CLint scaled at 10 µM was determined as 1.1 ± 0.3 mL/min/kg in data set [1]; 3.4 ± 1 mL/min/kg in data set [2] (liver microsomes, pH 7.4); 18 ± 7.1 mL/min/kg in data set [3] (liver microsomes). The half-life at 10 µM in data set [1] was 20.5 h; in data set [2] (setting [8]) it was 16.5 h; in data set [3] (microsomes), 3.46 h. In data set [2] (rat liver microsomes, 0.5 mg protein/ml, 10 μM compound, 37° C., Hydrochloride), the “Microsomal stability (t1/2), Rat” value is listed as 16.48 ± 4.66 h. Moreover, the recovery at 6 h, 50 μM in data set [4] amounted to 85.8%. Also, the concentration at 24 h in data set [6] (kidney, 5 mg/kg, after 24 h, one value per rat, read-out: Tissue distribution, Kidney) turned out to be 200 ng/g; in data set [6] (liver, 5 mg/kg, after 24 h, one value per rat, read-out: Tissue distribution, Liver), 230 ng/g; in data set [6] (lung, 5 mg/kg, after 24 h, one value per rat, read-out: Tissue distribution, Lung) it was 480 ng/g. The “Concentrations in all analyzed tissues (liver, kidney, lungs)” value in data set [6] (24 hours after administration) was “Significant concentrations”. Also, the “Tissue distribution, Kidney” value in data set [6] (setting [9]) was 0.35 mg/kg organ and 0.38 mg/kg organ. The “Tissue distribution, Liver” value in data set [6] (setting [9]) is 0.22 mg/kg organ and 0.15 mg/kg organ. The “Tissue distribution, Lung” value in data set [6] (setting [9]) was 0.19^a mg/kg organ and 0.53 mg/kg organ. Further, the “Clinical disease scores during EAE pathology” value in data set [7] is reported as “ameliorates clinical signs; also recorded: improved the clinical disease scores”. In addition, the Levels in blood result in data set [5] is “almost undetectable levels in blood”.
